Reference: patent US20260184706A1, “PHENYLSULFONAMIDE DERIVATIVES, PREPARATION METHOD THEREFOR, AND PHARMACEUTICAL COMPOSITION FOR PREVENTION OR TREATMENT OF CANCER CONTAINING SAME AS ACTIVE INGREDIENT” (Korea Research Institute of Chemical Technology, priority 2022, published 2026)

Key:
ATF4 = test: Inhibition of ATF4, downstream factor of ISR, in HT-1080 cells, Western blot (FIG. 1); format: cell-based, human; conditions: amino acid deficiency, compound 50 nM, 24 hours
Method: <Experimental Example 5> Evaluation of Inhibitory Efficacy of ISR-Related Kinase GCN2 Under Amino Acid Deficiency Condition Using Western Blot
HT-1080 cells, a human fibrosarcoma cell line, were cultured in RPMI-1640 medium supplemented with 10% FBS, penicillin (penicillin; 100 IU/ml), and streptomycin (streptomycin; 100 μg/ml). Cells (1×10^6 cells/ml) were seeded onto 100 mm plates (polypropylene tissue culture plate) and incubated for 24 hours in a 37° C., 5% CO2 incubator before being used for experiments.
The following method was used to achieve amino acid deficiency conditions in cells. After 24 hours of cell culture, the cells were cultured in amino acids and L-glutamine-free RPMI-1640 medium supplemented with 10% FBS, penicillin (100 IU/ml), and streptomycin (100 μg/ml). After 24 hours of cell culture in RPMI-1640 without amino acids and L-glutamine, the compound prepared at a concentration of 50 nM was dispensed onto each plate and cultured for 24 hours in a 37° C., 5% CO2 incubator.
In order to measure the signal transduction inhibitory efficacy of GCN among the ISR-related kinases according to the present invention, the following experiment was performed using SDS-PAGE. The fibrosarcoma cell line HT-1080 cells cultured on plates as described above were washed with PBS after removing the culture medium. After removing PBS, the cells were lysed by adding a radio-immunoprecipitation assay buffer (RIPA buffer) containing 50 mM Tris (pH 7.4), 150 mM NaCl, 1% NP-40, 0.5% sodium deoxycholate, 2 mM sodium fluoride, 2 mM EDTA, 0.1% SDS, and a protease/phosphatase inhibitor cocktail to the plate. After centrifugation at 4° C., 13,000×g for 15 minutes, the protein in the upper layer was collected, and the protein concentration was measured at 562 nm using BCA (bicinchoninc acid) reagent, and the amount of protein in all samples was prepared at 20-50 μg.
After making the total volume the same using the sample buffer and RIPA buffer, it was heated at 97° C. for 5 minutes. Then, electrophoresis was performed on 8% or 12% SDS-PAGE at 80 V for 30 minutes and at 160 V for 1 hour and 30 minutes. After electrophoresis, the SDS-PAGE gel was transferred to an NC membrane (nitrocellulose membrane) at 90 V for 2 hours. The NC membrane was placed in TBST (tris buffer saline tween-20; 20 mM tris, 137 mM sodium chloride, 0.1% tween-20, pH 8.0) containing 5% non-fat skim milk, placed on a shaker, and reacted at room temperature for 1 hour.
Each primary antibody was diluted in TBST containing 5% non-fat skim milk, poured onto the NC membrane, and reacted at 4° C. for 24 hours. The membrane was washed three times for 10 minutes each with TBST. The secondary antibodies (anti-rabbit IgG and anti-mouse IgG labeled with horseradish peroxidase (HRP)) were diluted in TBST containing 5% non-fat skim milk and reacted with the membrane at room temperature for 1 hour. Upon completion of the reaction, the membrane was washed three times with TBST for 10 minutes each. Protein expression bands were detected by a chemiluminescence image analyzer (Image Quant LAS 500) after the ECL solution was reacted with the NC membrane.
FIG. 1 is a set of photographs confirming the mechanism proteins that react upon ISR activation, wherein the numbers correspond to example numbers of the present invention. […] They are also known to have an effect on increasing the expression of CHOP (GADD153), the most downstream factor of the mechanism. […] Thus, in addition to the activation of ISR by amino acid deficiency, a significant effect can be expected on the mechanism of inhibition of the activity of PERK, an ISR-related kinase, due to endoplasmic reticulum stress response.

[1] = target: T1, recombinant human PERK protein (Homo sapiens, UniProt Q9NZJ5); test: PKR-like endoplasmic reticulum kinase (PERK) inhibitory capacity, 33P-ATP filter assay; format: biochemical; conditions: 15 uM [gamma-33P-ATP], 40 minutes, room temperature
T1 sequence (Q9NZJ5 30-1116): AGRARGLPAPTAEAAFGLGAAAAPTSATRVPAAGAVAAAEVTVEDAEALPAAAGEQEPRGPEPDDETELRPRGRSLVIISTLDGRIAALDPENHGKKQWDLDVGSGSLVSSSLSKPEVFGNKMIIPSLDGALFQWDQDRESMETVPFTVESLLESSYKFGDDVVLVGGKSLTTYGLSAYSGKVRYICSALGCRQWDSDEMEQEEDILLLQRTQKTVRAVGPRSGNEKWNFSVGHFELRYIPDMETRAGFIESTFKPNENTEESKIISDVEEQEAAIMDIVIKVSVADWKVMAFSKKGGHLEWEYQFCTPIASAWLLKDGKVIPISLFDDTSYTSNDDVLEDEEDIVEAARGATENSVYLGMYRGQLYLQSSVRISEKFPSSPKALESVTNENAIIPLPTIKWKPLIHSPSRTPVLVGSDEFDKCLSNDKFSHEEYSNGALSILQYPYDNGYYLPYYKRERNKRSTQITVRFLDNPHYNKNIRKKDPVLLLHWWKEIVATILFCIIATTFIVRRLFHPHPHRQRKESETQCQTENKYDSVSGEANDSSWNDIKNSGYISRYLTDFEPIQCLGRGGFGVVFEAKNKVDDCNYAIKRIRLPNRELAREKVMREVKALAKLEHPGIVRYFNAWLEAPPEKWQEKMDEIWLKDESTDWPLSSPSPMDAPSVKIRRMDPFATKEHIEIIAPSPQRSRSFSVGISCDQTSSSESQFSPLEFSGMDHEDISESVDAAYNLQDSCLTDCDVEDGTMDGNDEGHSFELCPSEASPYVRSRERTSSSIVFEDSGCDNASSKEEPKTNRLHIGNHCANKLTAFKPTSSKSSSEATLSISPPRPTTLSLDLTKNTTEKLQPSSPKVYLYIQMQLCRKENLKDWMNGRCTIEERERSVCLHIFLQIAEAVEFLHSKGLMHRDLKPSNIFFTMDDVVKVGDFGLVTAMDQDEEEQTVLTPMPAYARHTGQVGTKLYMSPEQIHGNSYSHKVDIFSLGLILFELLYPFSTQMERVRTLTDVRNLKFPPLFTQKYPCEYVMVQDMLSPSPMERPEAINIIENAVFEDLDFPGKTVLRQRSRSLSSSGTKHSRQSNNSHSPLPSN

SMILES	inhibitory effect on ATF4 (FIG. 1) (ATF4)	IC50 [1] [µM]
COc1ncc(Cl)cc1S(=O)(=O)Nc1ccc(F)c(-n2cc(C(F)F)c3nc(N)ncc3c2=O)c1F [Example 22, N-(3-(2-amino-8-(difluoromethyl)-5-oxopirido[4,3-d]pyrimidin-6(5H)-yl)-2,4-difluorophenyl)-5-chloro-2-methoxypyridine-3-sulfonamide]	excellent inhibitory effects	< 0.1
Nc1ncc2c(=O)n(-c3c(F)ccc(NS(=O)(=O)c4cc(Cl)cnc4Cl)c3F)ccc2n1 [Example 27, N-(3-(2-amino-5-oxopirido[4,3-d]pyrimidin-6(5H)-yl)-2,4-difluorophenyl)-2,5-dichloropyridine-3-sulfonamide]		< 0.1
Nc1ncc2c(=O)n(-c3c(F)ccc(NS(=O)(=O)c4cccc5ccccc45)c3F)ccc2n1 [Example 29, N-(3-(2-amino-5-oxopirido[4,3-d]pyrimidin-6(5H)-yl)-2,4-difluorophenyl)naphthalene-1-sulfonamide]	excellent inhibitory effects	< 0.1
CNc1ncc2c(=O)n(-c3c(F)ccc(NS(=O)(=O)c4cc(Cl)cnc4OC)c3F)ccc2n1 [Example 32, 5-chloro-N-(2,4-difluoro-3-(2-(methylamino)-5-oxopirido[4,3-d]pyrimidin-6(5H)-yl)phenyl)-2-methoxypyridine-3-sulfonamide]		< 0.1
COc1ncc(Cl)cc1S(=O)(=O)Nc1ccc(F)c(-n2c(=O)c3cnc(N)nc3n(C)c2=O)c1F [Example 44, N-(3-(7-amino-1-methyl-2,4-dioxo-1,4-dihydropyrimido[4,5-d]pyrimidin-3(2H)-yl)-2,4-difluorophenyl)-5-chloro-2-methoxypyridine-3-sulfonamide]	excellent inhibitory effects	< 0.1
COc1ncc(Br)cc1S(=O)(=O)Nc1ccc(F)c(-n2c(=O)c3cnc(N)nc3n(C)c2=O)c1F [Example 46, N-(3-(7-amino-1-methyl-2,4-dioxo-1,4-dihydropyrimido[4,5-d]pyrimidin-3(2H)-yl)-2,4-difluorophenyl)-5-bromo-2-methoxypyridine-3-sulfonamide]	excellent inhibitory effects	< 0.1
